Converted amounts (≈) assume the structure as drawn.
Test: Solubility test (shaken at 20° C. for 3 hours, filtered, HPLC)
Type: physicochemical
Conditions: for solubility at 3 h: 20 °C, thermodynamic from solid; for solubility at 3 h / Solubility: 20° C., shaken 3 hours; for Solubility rank among Forms α, β, γ: in each solvent measured
Description: Each sample (i.e., Forms α, β, and γ of Compound A) was weighed to a 4-mL-volume glass vial. A test solution (3 mL) was added to the vial and the mixture was suspended. About 150 mg of the sample was weighed for the test solution of the 1st fluid for solubility test of The Japanese Pharmacopoeia and about 15 mg was weighed for the test solutions of the 2nd fluid for solubility test of The Japanese Pharmacopoeia and water. Each mixture was shaken with a constant temperature incubator shaker (manufactured by TAITEC) at 20° C. for 3 hours. After being shaken, the supernatant was filtered through a polytetrafluoroethylene disk filter (Millex-LG; manufactured by Millipore) with the 0.2-μm pore size and 4-mm diameter. The measurement was performed by high-performance liquid chromatography (HPLC).

[1] = Solvent: JP 1st fluid for solubility test, pH about 1.2
[2] = Solvent: JP 2nd fluid for solubility test (water / phosphate buffer pH 6.8, 1:1)

solubility at 3 h (JP 1st fluid for solubility test, pH 1.2, simulated gastric fluid, Solvent: JP 1st fluid for solubility test, pH about 1.2) | solubility at 3 h (JP 2nd fluid for solubility test, pH 6.8, aqueous buffer, Solvent: JP 2nd fluid for solubility test (water / phosphate buffer pH 6.8, 1:1)) | Solubility rank among Forms α, β, γ | solubility at 3 h (water, water, Solvent: Water) | Solubility [1] | Solubility [2] | Solubility (Solvent: Water) | Compound
45000 µg/mL (≈ 145 mM) | 2700 µg/mL (≈ 8.7 mM) | highest solubility | 2600 µg/mL (≈ 8.38 mM) |  |  |  | C[C@H]1CN(C(=O)CC#N)[C@]12CCN(c1ncnc3[nH]ccc13)C2 [Form α, 3-((3S,4R)-3-methyl-6-(7H-pyrrolo[2,3-d]pyrimidin-4-yl)-1,6-diazaspiro[3.4]octan-1-γ 1)-3-oxopropanenitrile]
 |  |  |  | 39100 µg/mL (≈ 126 mM) | 2100 µg/mL (≈ 6.77 mM) | 2000 µg/mL (≈ 6.44 mM) | C[C@H]1CN(C(=O)CC#N)[C@]12CCN(c1ncnc3[nH]ccc13)C2 [Form β, 3-((3S,4R)-3-methyl-6-(7H-pyrrolo[2,3-d]pyrimidin-4-yl)-1,6-diazaspiro[3.4]octan-1-γ 1)-3-oxopropanenitrile]
 |  | lowest solubility |  | 36400 µg/mL (≈ 117 mM) | 1500 µg/mL (≈ 4.83 mM) | 1500 µg/mL (≈ 4.83 mM) | C[C@H]1CN(C(=O)CC#N)[C@]12CCN(c1ncnc3[nH]ccc13)C2 [Form γ, 3-((3S,4R)-3-methyl-6-(7H-pyrrolo[2,3-d]pyrimidin-4-yl)-1,6-diazaspiro[3.4]octan-1-γ 1)-3-oxopropanenitrile]
